Results reported in patent publication US5079260A, “Method for treating inflammation and compounds and compositions suitable for use therein” (Nova Pharmaceutical Corporation, priority 1990, dated 1992).

Experiments:
[1] = system: Ear Edema Caused By Tetradecanoylphorbol Acetate; experiment: Inhibition of Ear Edema Caused by Tetradecanoylphorbol Acetate (II), Table 7; format: in vivo, CF-1 Mice; settings: i.p., 3 h
Method: Inhibition of Ear Edema Caused by Tetradecanoylphorbol Acetate (II)
CF-1 Mice, 25-30 g body weight, six animals per group were used. Test compounds were administered intraperitoneally or topically as follows. For intraperitoneal administration, the test compound was dissolved in dimethyl sulfoxide or 0.5% methylcellulose and 100 microliters was injected 30 minutes prior to irritant (100 mg/kg, i.p.). […] A solution of the irritant, tetradecanoylphorbol acetate, 200 μg/mL, was added to the surface of the ear, 5 μL to the upper surface and 5 μL to the lower surface. After three hours, the thickness of the ear was measured to 0.01 mm by a micrometer with loose drag, positioned at the lateral-most edge of the mid-point of the pinna. Data were calculated as the inhibition of increased ear thickness compared to control animals receiving only the irritant.

[2] = system: Ear Edema Caused by Arachidonic Acid; experiment: Inhibition of Ear Edema Caused by Arachidonic Acid (II), Table 8; format: in vivo, CF-1 mice; settings: i.p., sixty minutes
Method: Inhibition of Ear Edema Caused by Arachidonic Acid (II)
CF-1 mice, 25-30 g body weight, six animals per group, were used. The requisite amount of the test compound was dissolved is dimethyl sulfoxide or 0.5% methylcellulose and 100 μL of the solution was injected intraperitoneally 30 minutes prior to the administration of 100 mg/kg of arachidponic acid. A solution of this irritant, b 100 mg/mL in ethanol, was applied to the surface of the ear, 5 μL to the upper surface and 5 μL to the lower surface. After sixty minutes, the thickness of the ear was measured to 0.01 mm by a micrometer with the loose drag positioned at the lateral-most edge of the mid-point of the pinna. Data were calculated as the percent inhibityion by the test compound of increased ear thickness compared to control animals recieveing only the irritant.

[3] = system: Ear Edema Caused by Xylene; experiment: Inhibition of Ear Edema Caused by Xylene (II), Table 9; format: in vivo, CF-1 mice; settings: i.p., 2 h
Method: Inhibition of Ear Edema Caused by Xylene (II)
CF-1 mice, 25-30 g body weight, six animals per group, were used. The requisite amount of the test compound was dissolved is dimethyl sulfoxide or 0.5% methylcellulose and 100 μL of the solution was injected intraperitoneally 30 minutes prior to the administration the irritant. The irritant xylene was applied to the surface of the ear, 20 μL to the upper surface and 20 μL to the lower surface, After two hours, the thickness of the ear was measured to 0.01 mm by a micrometer with the loose drag positioned at the lateral-most edge of the mid-point of the pinna. Data were calculated as the percent inhibition by the test compound of increased ear thickness compared to control animals receiving only the irritant.

[4] = system: Ear Edema Caused by Oxazolone; experiment: Inhibition of Ear Edema Caused by Oxazolone (II), Table 10; format: in vivo, CF-1 mice; settings: i.p., 24 h
Method: Inhibition of Ear Edema Caused by Oxazolone (II)
CF-1 mice, 25-30 g body weight, five to six animals per group were used. The mice were sensitized to the irritant two weeks prior to the test by dribbling 100 μL of a 3% solution of oxazolone in acetone onto the abdominal skin of the animal. Test compounds were administered intraperitoneally as follows. […] The irritant, 3% oxazolone in acetone, was added to the surface of the ear, 5 μL added to the upper surface and 5 μL added to the lower surface. After twenty four hours, the thickness of the ear was measured to 0.01 mm by a micrometer with loose drag, positioned at the lateral-most edge of the mid-point of the pinna. Data were calculated as the inhibition of increased ear thickness compared to control animals' receiving only the irritant.

CCCC[C@H](NC(=O)OCC1c2ccccc2-c2cccc(C)c21)C(=O)O (stereo partly drawn) [NPC 15951, N-{[9H-(1-Methylfluoren-9-yl)methoxy]carbonyl}-L-norleucine]
% Inhibition Intraperitoneal ([1]; 10 mg/kg): 41% | % Inhibition Intraperitoneal ([1]; 30 mg/kg): 39% | % Inhibition Intraperitoneal ([1]; 100 mg/kg): 70% | % Inhibition Intraperitoneal ([2]; 10 mg/kg): 11% | % Inhibition Intraperitoneal ([2]; 30 mg/kg): 18% | % Inhibition Intraperitoneal ([2]; 100 mg/kg): 56% | % Inhibition ([3]; 10 mg/kg): 40% | % Inhibition ([3]; 30 mg/kg): 62% | % Inhibition ([3]; 100 mg/kg): 62% | % Inhibition Intraperitoneal ([4]; 10 mg/kg): 33% | % Inhibition Intraperitoneal ([4]; 30 mg/kg): 23% | % Inhibition Intraperitoneal ([4]; 100 mg/kg): 49%

Cc1cccc2c1-c1ccccc1C2COC(=O)N[C@H](C(=O)O)C(C)(C)C (stereo partly drawn) [NPC 15904, N-{[9H-(4-Methylfluoren-9-yl)methoxy]carbonyl}-L-tert-leucine]
% Inhibition Intraperitoneal ([1]; 10 mg/kg): 16% | % Inhibition Intraperitoneal ([1]; 30 mg/kg): 0% | % Inhibition Intraperitoneal ([1]; 100 mg/kg): 43% | % Inhibition Intraperitoneal ([2]; 10 mg/kg): 19% | % Inhibition Intraperitoneal ([2]; 30 mg/kg): 54% | % Inhibition Intraperitoneal ([2]; 100 mg/kg): 79% | % Inhibition ([3]; 10 mg/kg): 0% | % Inhibition ([3]; 30 mg/kg): 10% | % Inhibition ([3]; 100 mg/kg): 68% | % Inhibition Intraperitoneal ([4]; 10 mg/kg): 21% | % Inhibition Intraperitoneal ([4]; 30 mg/kg): 54% | % Inhibition Intraperitoneal ([4]; 100 mg/kg): 79%

Cc1cccc2c1C(COC(=O)N[C@H](C(=O)O)C(C)(C)C)c1ccccc1-2 (stereo partly drawn) [NPC 15952, N-{[9H-(1-Methylfluoren-9-yl)methoxy]carbonyl}-L-tert-leucine]
% Inhibition Intraperitoneal ([1]; 10 mg/kg): 27% | % Inhibition Intraperitoneal ([1]; 30 mg/kg): 75% | % Inhibition Intraperitoneal ([1]; 100 mg/kg): 67% | % Inhibition Intraperitoneal ([2]; 10 mg/kg): 43% | % Inhibition Intraperitoneal ([2]; 30 mg/kg): 47% | % Inhibition Intraperitoneal ([2]; 100 mg/kg): 50% | % Inhibition ([3]; 10 mg/kg): 29% | % Inhibition ([3]; 30 mg/kg): 39% | % Inhibition ([3]; 100 mg/kg): 43% | % Inhibition Intraperitoneal ([4]; 10 mg/kg): 21% | % Inhibition Intraperitoneal ([4]; 30 mg/kg): 24% | % Inhibition Intraperitoneal ([4]; 100 mg/kg): 72%

Cc1cccc2c1-c1ccccc1C2COC(=O)N[C@@H](CCc1ccccc1)C(=O)O (stereo partly drawn) [NPC 15961, N-{[9H-(4-Methylfluoren-9-yl)methoxy]carbonyl}-L-homophenylalanine]
% Inhibition ([3]; 10 mg/kg): 41% | % Inhibition ([3]; 30 mg/kg): 41% | % Inhibition ([3]; 100 mg/kg): 57% | % Inhibition Intraperitoneal ([4]; 10 mg/kg): 29% | % Inhibition Intraperitoneal ([4]; 30 mg/kg): 23% | % Inhibition Intraperitoneal ([4]; 100 mg/kg): 92%

O=C(CCC1c2ccccc2-c2ccccc21)N[C@@H](Cc1ccccc1)C(=O)O [NPC 15896, N-[3-(9H-Fluoren-9-yl)propionyl]-L-Phenylalanine]
% Inhibition Intraperitoneal ([1]; 10 mg/kg): 0% | % Inhibition Intraperitoneal ([1]; 30 mg/kg): 0% | % Inhibition Intraperitoneal ([1]; 100 mg/kg): 84% | % Inhibition Intraperitoneal ([2]; 10 mg/kg): 16% | % Inhibition Intraperitoneal ([2]; 30 mg/kg): 24% | % Inhibition Intraperitoneal ([2]; 100 mg/kg): 72% | % Inhibition ([3]; 10 mg/kg): 28% | % Inhibition ([3]; 30 mg/kg): 24% | % Inhibition ([3]; 100 mg/kg): 21%

COc1ccc2c(c1)C(CCC(=O)N[C@@H](CC(C)C)C(=O)O)c1ccccc1-2 (stereo partly drawn) [NPC 15968, N-{9H-[3-(2-Methoxyfluoren-9-yl)propionyl]}-L-leucine]
% Inhibition ([3]; 10 mg/kg): 23% | % Inhibition ([3]; 30 mg/kg): 62% | % Inhibition ([3]; 100 mg/kg): 57% | % Inhibition Intraperitoneal ([4]; 10 mg/kg): 24% | % Inhibition Intraperitoneal ([4]; 30 mg/kg): 24% | % Inhibition Intraperitoneal ([4]; 100 mg/kg): 66%

CCOC(=O)[C@H](CC(C)C)NC(=O)OCC1c2ccccc2-c2ccccc21 [NPC 15327, N-[(9H-Fluoren-9-ylmethoxy)carbonyl]-L-leucine ethyl ester]
% Inhibition Intraperitoneal ([1]; 10 mg/kg): 37% | % Inhibition Intraperitoneal ([1]; 30 mg/kg): 64% | % Inhibition Intraperitoneal ([1]; 100 mg/kg): 77% | % Inhibition ([3]; 10 mg/kg): 18% | % Inhibition ([3]; 30 mg/kg): 8% | % Inhibition ([3]; 100 mg/kg): 19%

Cc1cccc2c1-c1ccccc1C2CCC(=O)N[C@@H](CC(C)C)C(=O)O (stereo partly drawn) [NPC 15975, N-{9H-[3-(4-Methylfluoren-9-yl)propionyl]}-L-leucine quarter hydrate]
% Inhibition ([3]; 10 mg/kg): 51% | % Inhibition ([3]; 30 mg/kg): 22% | % Inhibition ([3]; 100 mg/kg): 49% | % Inhibition Intraperitoneal ([4]; 10 mg/kg): 36% | % Inhibition Intraperitoneal ([4]; 30 mg/kg): 19% | % Inhibition Intraperitoneal ([4]; 100 mg/kg): 73%

CCCC[C@H](NC(=O)CCC1c2ccccc2-c2cccc(C)c21)C(=O)O (stereo partly drawn) [NPC 15976, N-[9H-[3-(1-Methylfluoren-9-yl)propionyl]}-L-norleucine, quarter hydrate]
% Inhibition ([3]; 10 mg/kg): 59% | % Inhibition ([3]; 30 mg/kg): 33% | % Inhibition ([3]; 100 mg/kg): 62% | % Inhibition Intraperitoneal ([4]; 10 mg/kg): 10% | % Inhibition Intraperitoneal ([4]; 30 mg/kg): 8% | % Inhibition Intraperitoneal ([4]; 100 mg/kg): 73%

Cc1cccc2c1-c1ccccc1C2COC(=O)N[C@@H](CC(C)C)C(=O)O (stereo partly drawn) [NPC 15325, N-{[9H-(4-Methylfluoren-9-yl)methoxy]carbonyl}-L-leucine]
% Inhibition Intraperitoneal ([1]; 10 mg/kg): 36% | % Inhibition Intraperitoneal ([1]; 30 mg/kg): 11% | % Inhibition Intraperitoneal ([1]; 100 mg/kg): 82% | % Inhibition Intraperitoneal ([2]; 10 mg/kg): 52% | % Inhibition Intraperitoneal ([2]; 30 mg/kg): 63% | % Inhibition Intraperitoneal ([2]; 100 mg/kg): 100% | % Inhibition ([3]; 10 mg/kg): 16% | % Inhibition ([3]; 30 mg/kg): 25% | % Inhibition ([3]; 100 mg/kg): 78% | % Inhibition Intraperitoneal ([4]; 10 mg/kg): 22% | % Inhibition Intraperitoneal ([4]; 30 mg/kg): 24% | % Inhibition Intraperitoneal ([4]; 100 mg/kg): 49%

Cc1cccc2c1C(CCC(=O)N[C@@H](CCc1ccccc1)C(=O)O)c1ccccc1-2 (stereo partly drawn) [NPC 15974, N-{9H-[3-(1-Methylfluoren-9-yl)propionyl]}-L-homophenylalanine]
% Inhibition ([3]; 10 mg/kg): 48% | % Inhibition ([3]; 30 mg/kg): 57% | % Inhibition ([3]; 100 mg/kg): 59% | % Inhibition Intraperitoneal ([4]; 10 mg/kg): 0% | % Inhibition Intraperitoneal ([4]; 30 mg/kg): 23% | % Inhibition Intraperitoneal ([4]; 100 mg/kg): 48%

CCCC[C@H](NC(=O)CCC1c2ccccc2-c2ccccc21)C(=O)O [NPC 15894, N-[3-(9H-Fluoren-9-yl)propionyl]-L-norleucine, quarter hydrate]
% Inhibition Intraperitoneal ([1]; 10 mg/kg): 11% | % Inhibition Intraperitoneal ([1]; 30 mg/kg): 0% | % Inhibition Intraperitoneal ([1]; 100 mg/kg): 68% | % Inhibition Intraperitoneal ([2]; 10 mg/kg): 22% | % Inhibition Intraperitoneal ([2]; 30 mg/kg): 40% | % Inhibition Intraperitoneal ([2]; 100 mg/kg): 60% | % Inhibition ([3]; 10 mg/kg): 0% | % Inhibition ([3]; 30 mg/kg): 0% | % Inhibition ([3]; 100 mg/kg): 34% | % Inhibition Intraperitoneal ([4]; 10 mg/kg): 29% | % Inhibition Intraperitoneal ([4]; 30 mg/kg): 14% | % Inhibition Intraperitoneal ([4]; 100 mg/kg): 35%

CC(C)C[C@H](NC(=O)OCC1c2ccccc2-c2ccccc21)C(=O)OCc1ccccc1 [NPC 15328, N-[(9H-Fluoren-9-ylmethoxy)carbonyl]-L-leucine benzyl ester]
% Inhibition Intraperitoneal ([1]; 10 mg/kg): 49% | % Inhibition Intraperitoneal ([1]; 30 mg/kg): 47% | % Inhibition Intraperitoneal ([1]; 100 mg/kg): 62% | % Inhibition ([3]; 10 mg/kg): 19% | % Inhibition ([3]; 30 mg/kg): 29% | % Inhibition ([3]; 100 mg/kg): 13%

O=C(CCC1c2ccccc2-c2ccccc21)N[C@@H](CCc1ccccc1)C(=O)O [NPC 15895, N-[3-(9H-Fluoren-9-yl)propionyl]-L-Homophenylalanine, quarter hydrate]
% Inhibition Intraperitoneal ([1]; 10 mg/kg): 68% | % Inhibition Intraperitoneal ([1]; 30 mg/kg): 71% | % Inhibition Intraperitoneal ([1]; 100 mg/kg): 67% | % Inhibition Intraperitoneal ([2]; 10 mg/kg): 14% | % Inhibition Intraperitoneal ([2]; 30 mg/kg): 26% | % Inhibition Intraperitoneal ([2]; 100 mg/kg): 52% | % Inhibition ([3]; 10 mg/kg): 0% | % Inhibition ([3]; 30 mg/kg): 0% | % Inhibition ([3]; 100 mg/kg): 51% | % Inhibition Intraperitoneal ([4]; 10 mg/kg): 4% | % Inhibition Intraperitoneal ([4]; 30 mg/kg): 12% | % Inhibition Intraperitoneal ([4]; 100 mg/kg): 71%
